We go through 7 molecules from ChEMBL document CHEMBL1201862, “PubChem BioAssay data set” (2004).

The structures appear in SMILES notation.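 Tested at 5 concentrations; 48 h exposure; 96-well plates; endpoints linearly interpolated, else capped at highest concentration. Abbreviation: GI50, concentration required for 50% inhibition of growth.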 Activity calls are given as the source filed them. No stated cut-off is given here; in the data, active = GI50 up to about 1.1 µM and inactive = higher.

What all share (assay): inhibition of tumour cell growth, NCI panel, 48 h
Assay [1] deals with ACHN.
For assay [2], the system named is CAKI-1.
In assay [3] the test system is CCRF-CEM.
The test system of assay [4] is EKVX.
Assay [5] concerns HCC 2998.
The subject of assay [6] is HCT-116.
For assay [7], the system named is HL-60.
In assay [8] the test system is HOP-62.
In assay [9] the test system is HOP-92.
Assay [10] deals with K562.
Assay [11] concerns LOX IMVI.
The subject of assay [12] is MOLT-4.
For assay [13], the system named is PC-3.
The test system of assay [14] is SF-539.
Assay [15] has as its system SK-MEL-2.
In assay [16] the test system is SK-MEL-5.
The subject of assay [17] is SK-OV-3.
The test system of assay [18] is SN12C.
Assay [19] has as its system SR.
In assay [20] the test system is SW-620.

For the molecule `c1ccc(C2C3=C(c4ccccc4CC3)N3c4cc5c(cc4=NC34CCCCC24)Nc2ccccc2N=5)cc1` (stereo not given), the GI50 in [1] is 7.26 µM (inactive); in [2], > 10 µM (inactive); in assay [3] it was 1.67 µM (inactive); in assay [4], > 10 µM (inactive); in [5], > 10 µM (inactive); in assay [6] it was 5.55 µM (inactive). Moreover, the GI50 in [7] was 3.77 µM (inactive); in assay [8], > 10 µM (inactive); in assay [9] it was 7.64 µM (inactive); in [10], 5.27 µM (inactive); in assay [11], 8.04 µM (inactive); in [12], 2.4 µM (inactive). For the same molecule, the GI50 is 6.92 µM (inactive) in assay [13]; > 10 µM (inactive) in assay [14]; > 10 µM (inactive) in assay [15]; > 10 µM (inactive) in [16]; > 10 µM (inactive) in assay [17]; > 10 µM (inactive) in [18]. Further, the GI50 in assay [19] was 1.11 µM (active); in [20], 9.64 µM (inactive).

As for `Cc1ccc2nc(-c3ccc(C(C)(C)C)cc3)oc(=O)c2c1`, the GI50 in assay [1] was 12.3 µM (inactive); in [2] it was 19.4 µM (inactive); in assay [3], 20.7 µM (inactive); in assay [4], 20 µM (inactive); in assay [5] it was 14.6 µM (inactive); in assay [6], 17 µM (inactive). Moreover, the GI50 in assay [7] is 16.6 µM (inactive); in [8], 27.9 µM (inactive); in assay [9], 29 µM (inactive); in assay [10], 17.3 µM (inactive); in assay [11], 16.4 µM (inactive); in [12], 17 µM (inactive). Also, the GI50 was 20.7 µM (inactive) in assay [13]; 18.2 µM (inactive) in [14]; 26.7 µM (inactive) in assay [15]; 14.3 µM (inactive) in assay [16]; 22.9 µM (inactive) in assay [17]; 38.8 µM (inactive) in assay [18]. The GI50 in [19] is 21.2 µM (inactive); in assay [20], 26.3 µM (inactive).

As for `Cc1ccc2c(c1)Nc1ccccc1P2(=O)O`, the GI50 in assay [1], in assay [2], in assay [3], in assay [4], in assay [5] and in assay [6] was > 100 µM (inactive) each time. The GI50 in assay [7], in assay [8], in assay [9], in [10], in [11] and in assay [12] was > 100 µM (inactive) throughout. For the same molecule, the GI50 in assay [13], in assay [14], in assay [15], in assay [16], in assay [17] and in assay [18] was > 100 µM (inactive) in each case. Further, the GI50 in [19] and in [20] was > 100 µM (inactive) in each case.

With `CCCCCCCCCCCCCCCCCCOP(=O)([O-])OC1CC[N+](C)(C)CC1` [PERIFOSINE], the GI50 in [1] is 12.4 µM (inactive); in assay [2], 3.6 µM (inactive); in assay [3] it was 0.714 µM (active); in assay [4], 11.3 µM (inactive); in assay [5], 5.16 µM (inactive); in assay [6], 7.94 µM (inactive). Besides, the GI50 in assay [7] is 1.19 µM (inactive); in assay [8], 7.53 µM (inactive); in assay [9] it was 3.38 µM (inactive); in assay [10], 16.4 µM (inactive); in assay [11], 7.43 µM (inactive); in assay [12] it was 3.4 µM (inactive). Further, the GI50 in assay [13] is 0.873 µM (active); in [14], 15.6 µM (inactive); in [15] it was 13.8 µM (inactive); in assay [16], 15.8 µM (inactive); in [17] it was 5.64 µM (inactive); in assay [18], 4.6 µM (inactive). In addition, the values for the GI50 in assay [19] and in assay [20] were 1.11 µM (active) and 8.05 µM (inactive), respectively.

On to `C[N+](C)(C)CC1CCc2ccccc2C1=O` (stereo not given), for which the GI50 in [1] is 7.55 µM (inactive); in [2] it was 4.97 µM (inactive); in [3] it was 2.55 µM (inactive); in [4], 7.76 µM (inactive); in assay [5], 15.3 µM (inactive); in assay [6] it was 5.55 µM (inactive). Further, the GI50 in [7] was 2.52 µM (inactive); in assay [8], 26.4 µM (inactive); in [9] it was 7.35 µM (inactive); in assay [10], 1.79 µM (inactive); in assay [11] it was 18.7 µM (inactive); in assay [12], 2.32 µM (inactive). The GI50 in assay [13] was 15.5 µM (inactive); in assay [14] it was 15.8 µM (inactive); in [15], 16.7 µM (inactive); in assay [16] it was 16.2 µM (inactive); in assay [17] it was 18.6 µM (inactive); in assay [18], 8.43 µM (inactive). Moreover, the GI50 was 1.79 µM (inactive) in assay [19] and 1.68 µM (inactive) in [20].

On to `CN(Cc1cnc2nc(N)nc(N)c2n1)c1ccc(C(=O)NC(CCC(=O)NCCC(P(=O)(O)O)P(=O)(O)O)C(=O)O)cc1` (stereo not given), for which the GI50 was 11.5 µM (inactive) in [1]; > 25 µM (inactive) in assay [2]; 6.08 µM (inactive) in [3]; 69.5 µM (inactive) in assay [4]; 71.4 µM (inactive) in [5]; 3.67 µM (inactive) in [6]. The GI50 was 4.12 µM (inactive) in [7]; 52.6 µM (inactive) in [8]; > 100 µM (inactive) in assay [9]; 1.47 µM (inactive) in [10]; 4.38 µM (inactive) in assay [11]; 6.5 µM (inactive) in [12]. The GI50 in assay [13] is 1.79 µM (inactive); in assay [14], 10.3 µM (inactive); in assay [15], > 49.5 µM (inactive); in assay [16], 43.4 µM (inactive); in [17], 1.13 µM (inactive); in assay [18], 11 µM (inactive). In addition, the GI50 is 3.17 µM (inactive) in assay [19] and > 23.3 µM (inactive) in assay [20].

`CSc1n[n+](C)cc(N)c1N`: the GI50 in assay [1], in assay [2], in [3], in assay [4], in assay [5] and in assay [6] was > 100 µM (inactive) each time. Moreover, the GI50 in assay [7] is 51.9 µM (inactive); in assay [8], > 100 µM (inactive); in assay [9] it was 17.8 µM (inactive); in assay [10], 39 µM (inactive); in [11], > 100 µM (inactive); in [12] it was > 100 µM (inactive). For the same molecule, the GI50 in assay [13], in [14], in assay [15], in [16], in assay [17] and in assay [18] was > 100 µM (inactive) in each case. The GI50 in [19] and in [20] was > 100 µM (inactive) each time.
